# ChEMBL document CHEMBL4257449, “New N-(2-phenyl-4-oxo-1,3-thiazolidin-3-yl)-1,2-benzothiazole-3-carboxamides and acetamides as antimicrobial agents” (2017)
# Legend:
# Trichoderma viride [1] = experiment: Antifungal activity against Trichoderma viride IAM 5061 after 72 hrs by serial dilution method; format: functional; conditions: IAM 5061, 72 h
# Salmonella typhimurium [2] = experiment: Bactericidal activity against Salmonella typhimurium ATCC 13311 incubated for 24 hrs followed by serial sub-cultivation and measured after 24 hrs by microdilution method; format: functional, Salmonella enterica subsp. enterica serovar Typhimurium
# Penicillium ochrochloron [3] = experiment: Antifungal activity against Penicillium ochrochloron ATCC 9112 after 72 hrs by serial dilution method; format: functional; conditions: ATCC 9112, 72 h
# Trichoderma viride [4] = experiment: Fungicidal activity against Trichoderma viride IAM 5061 incubated for 72 hrs followed by serial sub-cultivation for 72 hrs and measured after 72 hrs by serial dilution method; format: functional
# Pseudomonas aeruginosa [5] = experiment: Antibacterial activity against Pseudomonas aeruginosa ATCC 27853 after 24 hrs by microdilution method; format: functional; conditions: ATCC 27853, 24 h
# Escherichia coli [6] = experiment: Bactericidal activity against Escherichia coli ATCC 35210 incubated for 24 hrs followed by serial sub-cultivation and measured after 24 hrs by microdilution method; format: functional
# Enterobacter cloacae [7] = experiment: Bactericidal activity against Enterobacter cloacae incubated for 24 hrs followed by serial sub-cultivation and measured after 24 hrs by microdilution method; format: functional
# Staphylococcus aureus [8] = experiment: Bactericidal activity against Staphylococcus aureus ATCC 6538 incubated for 24 hrs followed by serial sub-cultivation and measured after 24 hrs by microdilution method; format: functional
# Enterobacter cloacae [9] = experiment: Antibacterial activity against Enterobacter cloacae after 24 hrs by microdilution method; format: functional
# Escherichia coli [10] = experiment: Antibacterial activity against Escherichia coli ATCC 35210 after 24 hrs by microdilution method; format: functional; conditions: ATCC 35210, 24 h
# Aspergillus niger [11] = experiment: Antifungal activity against Aspergillus niger ATCC 6275 after 72 hrs by serial dilution method; format: functional; conditions: ATCC 6275, 72 h
# Staphylococcus aureus [12] = experiment: Antibacterial activity against Staphylococcus aureus ATCC 6538 after 24 hrs by microdilution method; format: functional; conditions: ATCC 6538, 24 h
# Talaromyces funiculosus [13] = experiment: Antifungal activity against Penicillium funiculosum ATCC 36839 after 72 hrs by serial dilution method; format: functional; conditions: ATCC 36839, 72 h
# Bacillus cereus [14] = experiment: Bactericidal activity against Bacillus cereus incubated for 24 hrs followed by serial sub-cultivation and measured after 24 hrs by microdilution method; format: functional
# Aspergillus ochraceus [15] = experiment: Fungicidal activity against Aspergillus ochraceus ATCC 12066 incubated for 72 hrs followed by serial sub-cultivation for 72 hrs and measured after 72 hrs by serial dilution method; format: functional
# Listeria monocytogenes [16] = experiment: Bactericidal activity against Listeria monocytogenes NCTC 7973 incubated for 24 hrs followed by serial sub-cultivation and measured after 24 hrs by microdilution method; format: functional
# Listeria monocytogenes [17] = experiment: Antibacterial activity against Listeria monocytogenes NCTC 7973 after 24 hrs by microdilution method; format: functional; conditions: NCTC 7973, 24 h
# Salmonella typhimurium [18] = experiment: Antibacterial activity against Salmonella typhimurium ATCC 13311 after 24 hrs by microdilution method; format: functional, Salmonella enterica subsp. enterica serovar Typhimurium; conditions: Salmonella enterica, ATCC 13311, 24 h
# Talaromyces funiculosus [19] = experiment: Fungicidal activity against Penicillium funiculosum ATCC 36839 incubated for 72 hrs followed by serial sub-cultivation for 72 hrs and measured after 72 hrs by serial dilution method; format: functional
# Aspergillus fumigatus [20] = experiment: Fungicidal activity against Aspergillus fumigatus incubated for 72 hrs followed by serial sub-cultivation for 72 hrs and measured after 72 hrs by serial dilution method; format: functional
# Candida albicans [21] = experiment: Antifungal activity against Candida albicans after 72 hrs by serial dilution method; format: functional
# Aspergillus versicolor [22] = experiment: Antifungal activity against Aspergillus versicolor ATCC 11730 after 72 hrs by serial dilution method; format: functional; conditions: ATCC 11730, 72 h
# Aspergillus fumigatus [23] = experiment: Antifungal activity against Aspergillus fumigatus after 72 hrs by serial dilution method; format: functional
# Bacillus cereus [24] = experiment: Antibacterial activity against Bacillus cereus after 24 hrs by microdilution method; format: functional
# Pseudomonas aeruginosa [25] = experiment: Bactericidal activity against Pseudomonas aeruginosa ATCC 27853 incubated for 24 hrs followed by serial sub-cultivation and measured after 24 hrs by microdilution method; format: functional
# Micrococcus flavus [26] = experiment: Bactericidal activity against Micrococcus flavus ATCC 10240 incubated for 24 hrs followed by serial sub-cultivation and measured after 24 hrs by microdilution method; format: functional
# Candida albicans [27] = experiment: Fungicidal activity against Candida albicans incubated for 72 hrs followed by serial sub-cultivation for 72 hrs and measured after 72 hrs by serial dilution method; format: functional
# Aspergillus niger [28] = experiment: Fungicidal activity against Aspergillus niger ATCC 6275 incubated for 72 hrs followed by serial sub-cultivation for 72 hrs and measured after 72 hrs by serial dilution method; format: functional
# Penicillium ochrochloron [29] = experiment: Fungicidal activity against Penicillium ochrochloron ATCC 9112 incubated for 72 hrs followed by serial sub-cultivation for 72 hrs and measured after 72 hrs by serial dilution method; format: functional
# Aspergillus versicolor [30] = experiment: Fungicidal activity against Aspergillus versicolor ATCC 11730 incubated for 72 hrs followed by serial sub-cultivation for 72 hrs and measured after 72 hrs by serial dilution method; format: functional
# Aspergillus ochraceus [31] = experiment: Antifungal activity against Aspergillus ochraceus ATCC 12066 after 72 hrs by serial dilution method; format: functional; conditions: ATCC 12066, 72 h
# Micrococcus flavus [32] = experiment: Antibacterial activity against Micrococcus flavus ATCC 10240 after 24 hrs by microdilution method; format: functional; conditions: ATCC 10240, 24 h
Structure (SMILES),MIC (Trichoderma viride [1]) [µM],MBC99.5 (Salmonella typhimurium [2]) [×10⁻² umol/ml],MIC (Penicillium ochrochloron [3]) [µM],MFC99.5 (Trichoderma viride [4]) [×10⁻² umol/ml],MIC (Pseudomonas aeruginosa [5]) [µM],MBC99.5 (Escherichia coli [6]) [×10⁻² umol/ml],MBC99.5 (Enterobacter cloacae [7]) [×10⁻² umol/ml],MBC99.5 (Staphylococcus aureus [8]) [×10⁻² umol/ml],MIC (Enterobacter cloacae [9]) [µM],MIC (Escherichia coli [10]) [µM],MIC (Aspergillus niger [11]) [µM],MIC (Staphylococcus aureus [12]) [µM],MIC (Talaromyces funiculosus [13]) [µM],MBC99.5 (Bacillus cereus [14]) [×10⁻² umol/ml],MFC99.5 (Aspergillus ochraceus [15]) [×10⁻² umol/ml],MBC99.5 (Listeria monocytogenes [16]) [×10⁻² umol/ml],MIC (Listeria monocytogenes [17]) [µM],MIC (Salmonella typhimurium [18]) [µM],MFC99.5 (Talaromyces funiculosus [19]) [×10⁻² umol/ml],MFC99.5 (Aspergillus fumigatus [20]) [×10⁻² umol/ml],further results
O=C(NN1C(=O)CSC1c1ccc(Cl)cc1)c1nsc2ccccc12 (configuration not stated),25.6,115.2,102,5.12,205,76.8,115.2,38.4,789,589,102,205,102,38.4,20.5,76.8,589,768,20.5,38.4,MIC (Candida albicans [21]): 102 µM; MIC (Aspergillus versicolor [22]): 102 µM; MIC (Aspergillus fumigatus [23]): 205 µM; MIC (Bacillus cereus [24]): 205 µM; MBC99.5 (Pseudomonas aeruginosa [25]): 76.8 ×10⁻² umol/ml; MBC99.5 (Micrococcus flavus [26]): 76.8 ×10⁻² umol/ml; MFC99.5 (Candida albicans [27]): 20.5 ×10⁻² umol/ml; MFC99.5 (Aspergillus niger [28]): 20.5 ×10⁻² umol/ml; MFC99.5 (Penicillium ochrochloron [29]): 20.5 ×10⁻² umol/ml; MFC99.5 (Aspergillus versicolor [30]): 20.5 ×10⁻² umol/ml; MIC (Aspergillus ochraceus [31]): 102 µM; MIC (Micrococcus flavus [32]): 384 µM
O=C(NN1C(=O)CSC1c1ccc(F)cc1)c1nsc2ccccc12 (configuration not stated),402,21.4,402,80.4,107,21.4,21.4,21.4,107,107,402,107,214,40.2,80.4,40.2,214,107,53.6,21.4,MIC (Candida albicans [21]): 80 µM; MIC (Aspergillus versicolor [22]): 402 µM; MIC (Aspergillus fumigatus [23]): 107 µM; MIC (Bacillus cereus [24]): 214 µM; MBC99.5 (Pseudomonas aeruginosa [25]): 21.4 ×10⁻² umol/ml; MBC99.5 (Micrococcus flavus [26]): 40.2 ×10⁻² umol/ml; MFC99.5 (Candida albicans [27]): 10.7 ×10⁻² umol/ml; MFC99.5 (Aspergillus niger [28]): 80.4 ×10⁻² umol/ml; MFC99.5 (Penicillium ochrochloron [29]): 80.4 ×10⁻² umol/ml; MFC99.5 (Aspergillus versicolor [30]): 80.4 ×10⁻² umol/ml; MIC (Aspergillus ochraceus [31]): 402 µM; MIC (Micrococcus flavus [32]): 214 µM
O=C(NN1C(=O)CSC1c1cccc(Cl)c1)c1nsc2ccccc12 (configuration not stated),51,38.4,208,10.2,205,20.5,38.4,20.5,205,102,77,102,102,38.4,20.5,3.84,20.5,205,20.5,76.8,MIC (Candida albicans [21]): 102 µM; MIC (Aspergillus versicolor [22]): 51 µM; MIC (Aspergillus fumigatus [23]): 384 µM; MIC (Bacillus cereus [24]): 102 µM; MBC99.5 (Pseudomonas aeruginosa [25]): 38.4 ×10⁻² umol/ml; MBC99.5 (Micrococcus flavus [26]): 38.4 ×10⁻² umol/ml; MFC99.5 (Candida albicans [27]): 20.5 ×10⁻² umol/ml; MFC99.5 (Aspergillus niger [28]): 10.2 ×10⁻² umol/ml; MFC99.5 (Penicillium ochrochloron [29]): 38.4 ×10⁻² umol/ml; MFC99.5 (Aspergillus versicolor [30]): 10.2 ×10⁻² umol/ml; MIC (Aspergillus ochraceus [31]): 102 µM; MIC (Micrococcus flavus [32]): 205 µM
O=C(Cc1nsc2ccccc12)NN1C(=O)CSC1c1ccccc1Cl (configuration not stated),74,37.2,144,10,372,37.2,37.2,37.2,273,198,144,198,100,37.2,19.8,74.4,372,198,19.8,74.4,MIC (Candida albicans [21]): 198 µM; MIC (Aspergillus versicolor [22]): 74 µM; MIC (Aspergillus fumigatus [23]): 372 µM; MIC (Bacillus cereus [24]): 198 µM; MBC99.5 (Pseudomonas aeruginosa [25]): 74.4 ×10⁻² umol/ml; MBC99.5 (Micrococcus flavus [26]): 37.2 ×10⁻² umol/ml; MFC99.5 (Candida albicans [27]): 37.2 ×10⁻² umol/ml; MFC99.5 (Aspergillus niger [28]): 19.8 ×10⁻² umol/ml; MFC99.5 (Penicillium ochrochloron [29]): 19.8 ×10⁻² umol/ml; MFC99.5 (Aspergillus versicolor [30]): 10 ×10⁻² umol/ml; MIC (Aspergillus ochraceus [31]): 100 µM; MIC (Micrococcus flavus [32]): 273 µM
O=C(NN1C(=O)CSC1c1ccccc1)c1nsc2ccccc12 (configuration not stated),56,42.2,112,11.2,225,22.5,22.5,42.2,112,112,112,225,225,42.2,5.6,42.2,225,225,42.2,22.5,MIC (Candida albicans [21]): 253 µM; MIC (Aspergillus versicolor [22]): 225 µM; MIC (Aspergillus fumigatus [23]): 112 µM; MIC (Bacillus cereus [24]): 225 µM; MBC99.5 (Pseudomonas aeruginosa [25]): 42.2 ×10⁻² umol/ml; MBC99.5 (Micrococcus flavus [26]): 42.2 ×10⁻² umol/ml; MFC99.5 (Candida albicans [27]): 42.2 ×10⁻² umol/ml; MFC99.5 (Aspergillus niger [28]): 22.5 ×10⁻² umol/ml; MFC99.5 (Penicillium ochrochloron [29]): 22.5 ×10⁻² umol/ml; MFC99.5 (Aspergillus versicolor [30]): 42.2 ×10⁻² umol/ml; MIC (Aspergillus ochraceus [31]): 28 µM; MIC (Micrococcus flavus [32]): 225 µM
O=C(NN1C(=O)CSC1c1cccc(F)c1)c1nsc2ccccc12 (configuration not stated),54,40.2,107,10.7,214,21.4,21.4,21.4,214,160,107,107,107,40.2,40.2,40.2,214,214,21.4,10.7,MIC (Candida albicans [21]): 107 µM; MIC (Aspergillus versicolor [22]): 54 µM; MIC (Aspergillus fumigatus [23]): 54 µM; MIC (Bacillus cereus [24]): 107 µM; MBC99.5 (Pseudomonas aeruginosa [25]): 80.4 ×10⁻² umol/ml; MBC99.5 (Micrococcus flavus [26]): 40.2 ×10⁻² umol/ml; MFC99.5 (Candida albicans [27]): 21.4 ×10⁻² umol/ml; MFC99.5 (Aspergillus niger [28]): 21.4 ×10⁻² umol/ml; MFC99.5 (Penicillium ochrochloron [29]): 21.4 ×10⁻² umol/ml; MFC99.5 (Aspergillus versicolor [30]): 10.7 ×10⁻² umol/ml; MIC (Aspergillus ochraceus [31]): 292 µM; MIC (Micrococcus flavus [32]): 214 µM
